The conditions of data set [1]: for hydrolysis / reaction rate (comparison in words): deionized water, molar ratio of CaCO3. As to the method:
In the following examples, various ester hydrolysis reactions were run in the presence of calcium carbonate (CaCO3) to simulate the consumption of filter cake material. The acid evolved in each reaction was measured per unit of time. The acid generated upon hydrolysis was rapidly consumed in a secondary reaction that produced carbon dioxide (CO2). The half-life was secured when half of the CaCO3 was consumed. That is, using PV=nRT, the amount of CaCO3 that would yield approximately 1 liter of CO2 was calculated to be about 4.47 grams. We doubled the amount of CaCO3 (8.94 grams) for the reactions and then calculated the half-life based on the yield of 1 liter of CO2. Unless otherwise specified, all half-life quotations are actually the time required for 4.47 grams of CaCO3 to be consumed.
The following general procedure was used in each of the examples. The closed system reactor shown in FIG. 1 was used to measure the amount of CO2 gas that evolved in each reaction. Water or brine was added to a boiling flask 10, which was heated to 100° C. […] Once the liquid was boiling, a weighed amount of ester was added to flask 10. The amount of ester employed was always in ratio to the water or to the make-up water used to formulate the brine except where commercially available brines were used. Following addition of the ester to the boiling liquid, a reflux condenser 12 was affixed to flask 10. The top of condenser 12 was fixed with an adapter 14 to an inlet tube 18 in a 2-hole rubber stopper 16. The inlet tube 18 was passed through stopper 16, providing a seal. An outlet tube 22 was run from the bottom of a flask 20 to a 1,000 mL graduated cylinder 24. The flask 20 was charged with XP-07 base oil, commercially available from Halliburton Energy Services, Inc. The outlet tube 22 served the purpose of discharging the oil into graduated cylinder 24. The hydrolysis reaction produced acid in flask 10 that reacted with the CaCO3 to produce CO2 gas. The gas displaced the oil in flask 20 into graduated cylinder 24. The rate of CO2 evolution thus could be monitored visually by reading of the amount of oil in graduated cylinder 24 per unit of time.
Solutions containing various esters of lactic acid and of glycerol (i.e., monoacetin, ethyl lactate, triacetin, tripropionin), butyl formate (a control), and BDF-325 diethyleneglycol diformate (a control) in neutral water were prepared and combined with a molar ratio of CaCO3. Hydrolysis reactions were then carried out using the resulting solutions at 100° C. The hydrolysis reactions were monitored, and the half-lives of the esters were compared. The volume of oil displaced by the CO2 gas is plotted as a function of time in FIG. 2. […] The butyl formate to CaCO3 molar ratio was doubled for comparison purposes.
Solutions containing 10 volume % monoacetin, diacetin, and triacetin in deionized water were prepared and combined with a molar ratio of CaCO3. Hydrolysis reactions were then carried out using the resulting solutions at 100° C. The hydrolysis reactions were monitored, and the half-lives of the esters were compared. The volume of oil displaced by the CO2 gas is plotted as a function of time in FIG. 3.

The nature of data set [2]: Solubility of ester in water. The format is physicochemical.

Counter-ions that a name gives are not always drawn.

Consider `CC(=O)OCC(O)COC(C)=O` [Diacetin], for which the “hydrolysis / reaction rate (comparison in words)” value (“hydrolysis / reaction rate” below) in data set [1] (100° C.) is “very similar”.

With `CCOC(=O)C(C)O` (stereo not drawn) [Ethyl Lactate], the “hydrolysis performance in different aqueous solutions” value in data set [1] (10 volume % in deionized water and various brines, 100° C.) was “performed consistently”. Consider `CCCCOC(=O)C(C)O` (stereo not drawn) [Butyl lactate], for which the “effect of doubling the ester to CaCO3 molar ratio on reaction rate” value in data set [1] is recorded as “doubled its reaction rate”. The “hydrolysis / reaction rate” value in data set [1] (100° C.) is “faster than that of the butyl formate”. Turning to `CC(=O)OCC(COC(C)=O)OC(C)=O` [Triacetin], in data set [1] (100° C.), the “hydrolysis / reaction rate” value is reported as “very similar”. Turning to `CCCCOC=O` [butyl formate, reference compound], the “effect of doubling the ester to CaCO3 molar ratio on reaction rate” value in data set [1] is recorded as “surprisingly similar”. Moreover, the “hydrolysis / reaction rate” value in data set [1] (100° C.) is “slow reaction rate”. The solubility in water result in data set [2] was “relative insolubility”. With `CC(=O)OCC(O)CO` (stereo not drawn) [Monoacetin], the “half-life relative to target” value in data set [1] (buffer) is “within the targeted range”.

For the origin of these results see US7431088B2, “Methods of controlled acidization in a wellbore” (Halliburton Energy Services, Inc., priority 2006, dated 2008).
